The record followed here is patent US20220056019A1, “FARNESOID X RECEPTOR AGONISTS AND USES THEREOF” (Metacrine, Inc., priority 2018, published 2022).

Molecules are shown by their SMILES. pEC50: −log10 of the molar value.

This test addresses T1, hFXR (Homo sapiens, UniProt Q96RI1).
T1 construct: expressed in transfected cells; host or cells: CV-1 cells
T1 sequence (Q96RI1 1-486): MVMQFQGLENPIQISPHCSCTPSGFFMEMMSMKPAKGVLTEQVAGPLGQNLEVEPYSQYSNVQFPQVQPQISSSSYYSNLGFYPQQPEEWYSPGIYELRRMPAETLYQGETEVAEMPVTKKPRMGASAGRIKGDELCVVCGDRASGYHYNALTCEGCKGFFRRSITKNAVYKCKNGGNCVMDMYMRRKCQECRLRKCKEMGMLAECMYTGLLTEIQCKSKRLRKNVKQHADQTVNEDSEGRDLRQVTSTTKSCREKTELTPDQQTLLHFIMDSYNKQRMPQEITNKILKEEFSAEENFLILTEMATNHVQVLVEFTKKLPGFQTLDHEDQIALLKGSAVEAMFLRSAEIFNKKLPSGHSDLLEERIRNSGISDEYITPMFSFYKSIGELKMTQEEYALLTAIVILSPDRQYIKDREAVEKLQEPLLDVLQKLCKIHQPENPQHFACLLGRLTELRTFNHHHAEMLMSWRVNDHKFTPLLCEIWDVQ
T1 sequence (P19793 1-462 partner): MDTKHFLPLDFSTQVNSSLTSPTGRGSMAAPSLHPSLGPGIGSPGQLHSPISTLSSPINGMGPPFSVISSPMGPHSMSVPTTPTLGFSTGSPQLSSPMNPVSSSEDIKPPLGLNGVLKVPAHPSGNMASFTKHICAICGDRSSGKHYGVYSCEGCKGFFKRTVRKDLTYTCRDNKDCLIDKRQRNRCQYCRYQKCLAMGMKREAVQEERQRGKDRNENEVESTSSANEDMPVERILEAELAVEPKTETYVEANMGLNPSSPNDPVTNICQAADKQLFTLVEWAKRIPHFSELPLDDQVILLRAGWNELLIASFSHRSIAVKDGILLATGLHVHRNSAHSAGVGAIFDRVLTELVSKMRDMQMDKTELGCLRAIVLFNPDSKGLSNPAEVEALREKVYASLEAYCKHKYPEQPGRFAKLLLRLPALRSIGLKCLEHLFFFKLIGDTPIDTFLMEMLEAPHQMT
Briefly: In Vitro FXR Assay (TK): TK-ECRE-luc reporter in transfected CV-1 cells. The conditions noted are these: 18 hrs incubation, luminescence. Type of test: cell-based. A digest of the protocol: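 Reporter gene assay: CV-1 cells co-expressing hFXR, hRXR, TK-ECRE-luc and pCMX-YFP after overnight transfection in charcoal-stripped serum. Treatment with serially diluted compounds lasted 18 hrs at 37 °C, followed by cell lysis and a luminescence measurement.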
On to `COc1ccc(C23CCC(CN(c4cncc(-c5cnn(C(C)C)c5)n4)C(=O)[C@H]4CC[C@H](OC(=O)N5CC(O)C5)CC4)(CC2)CC3)cc1C` [Compound 25.28, 4-((6-(1-Isopropyl-1H-pyrazol-4-yl)pyrazin-2-yl)((4-(4-methoxy-3-methylphenyl)bicyclo[2.2.2]octan-1-yl)methyl)carbamoyl)cyclohexyl trans-3-hydroxyazetidine-1-carboxylate], for which the pEC50 was at least 7.30. Under `COc1ncc(C23CCC(CN(c4cc(-c5cnn(C(C)C)c5)ccn4)C(=O)[C@H]4CC[C@H](OC(=O)N5CC(O)C5)CC4)(CC2)CC3)cc1C` [Compound 26, 4-((4-(1-Isopropyl-1H-pyrazol-4-yl)pyridin-2-yl)((4-(6-methoxy-5-methylpyridin-3-yl)bicyclo[2.2.2]octan-1-yl)methyl)carbamoyl)cyclohexyl trans-3-hydroxyazetidine-1-carboxylate] stands at least 7.30; under `COc1ccc(C23CCC(CN(c4cc(-c5cnn(C(C)C)c5)c(Cl)cn4)C(=O)[C@H]4CC[C@H](OC(=O)N5CC(O)C5)CC4)(CC2)CC3)cc1C` [Compound 26.01, 4-((5-Chloro-4-(1-isopropyl-1H-pyrazol-4-yl)pyridin-2-yl)((4-(4-methoxy-3-methylphenyl)bicyclo[2.2.2]octan-1-yl)methyl)carbamoyl)(trans-cyclohexyl) 3-hydroxyazetidine-1-carboxylate], at least 7.30.

As for `COc1ccc(C23CCC(CN(c4cc(-c5cnn(C(C)C)c5)c(F)cn4)C(=O)[C@H]4CC[C@H](OC(=O)N5CC(O)C5)CC4)(CC2)CC3)cc1C` [Compound 26.02, 4-((5-Fluoro-4-(1-isopropyl-1H-pyrazol-4-yl)pyridin-2-yl)((4-(4-methoxy-3-methylphenyl)bicyclo[2.2.2]octan-1-yl)methyl)carbamoyl)(trans-cyclohexyl) 3-hydroxyazetidine-1-carboxylate], the negative logarithm of the EC50 (pEC50) was at least 7.30.

In turn, `COc1ccc(C23CCC(CN(c4ccc(F)c(-c5cnn(C(C)C)c5)c4)C(=O)[C@H]4CC[C@H](OC(=O)N5CC(O)C5)CC4)(CC2)CC3)cc1C` [Compound 26.03, 4-((4-Fluoro-3-(1-isopropyl-1H-pyrazol-4-yl)phenyl)((4-(4-methoxy-3-methylphenyl)bicyclo[2.2.2]octan-1-yl)methyl)carbamoyl)(trans-cyclohexyl) 3-hydroxyazetidine-1-carboxylate] had a pEC50 of at least 7.30. The compound `COc1ccc(C23CCC(CN(c4ccc(Cl)c(-c5cnn(C(C)C)c5)c4)C(=O)[C@H]4CC[C@H](OC(=O)N5CC(O)C5)CC4)(CC2)CC3)cc1C` [Compound 26.04, 4-((4-Chloro-3-(1-isopropyl-1H-pyrazol-4-yl)phenyl)((4-(4-methoxy-3-methylphenyl)bicyclo[2.2.2]octan-1-yl)methyl)carbamoyl)(trans-cyclohexyl) 3-hydroxyazetidine-1-carboxylate] had a negative logarithm of the EC50 (pEC50) of at least 7.30. Compound `COc1c(C)cc(C23CCC(CN(c4cc(-c5cnn(C(C)C)c5)ccn4)C(=O)[C@H]4CC[C@H](OC(=O)N5CC(O)C5)CC4)(CC2)CC3)cc1F` [Compound 26.05, 4-(((4-(3-Fluoro-4-methoxy-5-methylphenyl)bicyclo[2.2.2]octan-1-yl)methyl)(4-(1-isopropyl-1H-pyrazol-4-yl)pyridin-2-yl)carbamoyl)cyclohexyl trans-3-hydroxyazetidine-1-carboxylate] had a negative logarithm of the EC50 (pEC50) of at least 7.30.

The compound `COc1c(F)cc(C23CCC(CN(c4cc(-c5cnn(C(C)C)c5)ccn4)C(=O)[C@H]4CC[C@H](OC(=O)N5CC(O)C5)CC4)(CC2)CC3)cc1F` [Compound 26.06, 4-(((4-(3,5-Difluoro-4-methoxyphenyl)bicyclo[2.2.2]octan-1-yl)methyl)(4-(1-isopropyl-1H-pyrazol-4-yl)pyridin-2-yl)carbamoyl)cyclohexyl trans-3-hydroxyazetidine-1-carboxylate] gave a negative-log EC50 (pEC50) of at least 7.30. Under `COc1c(C)cc(C23CCC(CN(c4cc(-c5cnn(C(C)C)c5)ccn4)C(=O)[C@H]4CC[C@H](OC(=O)N5CC(O)C5)CC4)(CC2)CC3)cc1C` [Compound 26.07, 4-((4-(1-Isopropyl-1H-pyrazol-4-yl)pyridin-2-yl)((4-(4-methoxy-3,5-dimethylphenyl)bicyclo[2.2.2]octan-1-yl)methyl)carbamoyl)cyclohexyl trans-3-hydroxyazetidine-1-carboxylate] stands at least 7.30. For `COc1ccc(C23CCC(CN(c4cc(-c5cnn(C(C)C)c5)ccn4)C(=O)[C@H]4CC[C@H](OC(=O)N5CC(O)C5)CC4)(CC2)CC3)cc1F` [Compound 26.08, 4-(((4-(3-Fluoro-4-methoxyphenyl)bicyclo[2.2.2]octan-1-yl)methyl)(4-(1-isopropyl-1H-pyrazol-4-yl)pyridin-2-yl)carbamoyl)cyclohexyl trans-3-hydroxyazetidine-1-carboxylate], the pEC50 was at least 7.30. Under `Cc1ccc(C23CCC(CN(c4cc(-c5cnn(C(C)C)c5)ccn4)C(=O)[C@H]4CC[C@H](OC(=O)N5CC(O)C5)CC4)(CC2)CC3)cc1C` [Compound 26.09, 4-(((4-(3,4-Dimethylphenyl)bicyclo[2.2.2]octan-1-yl)methyl)(4-(1-isopropyl-1H-pyrazol-4-yl)pyridin-2-yl)carbamoyl)cyclohexyl trans-3-hydroxyazetidine-1-carboxylate] stands at least 7.30; under `CC(C)c1ccc(C23CCC(CN(c4cc(-c5cnn(C(C)C)c5)ccn4)C(=O)[C@H]4CC[C@H](OC(=O)N5CC(O)C5)CC4)(CC2)CC3)cc1` [Compound 26.10, 4-((4-(1-Isopropyl-1H-pyrazol-4-yl)pyridin-2-yl)((4-(4-isopropylphenyl)bicyclo[2.2.2]octan-1-yl)methyl)carbamoyl)cyclohexyl trans-3-hydroxyazetidine-1-carboxylate], at least 7.30. Under `COc1ccc(C23CCC(CN(c4cc(-c5cnn(C(C)C(F)(F)F)c5)ccn4)C(=O)[C@H]4CC[C@H](OC(=O)N5CC(O)C5)CC4)(CC2)CC3)cc1C` (stereo partly drawn) [Compound 26.11, 4-(((4-(4-Methoxy-3-methylphenyl)bicyclo[2.2.2]octan-1-yl)methyl)(4-(1-(1,1,1-trifluoropropan-2-yl)-1H-pyrazol-4-yl)pyridin-2-yl)carbamoyl)cyclohexyl trans-3-hydroxyazetidine-1-carboxylate] stands at least 7.30. In the case of `COc1ccc(C23CCC(CN(c4cc(-c5nnc(C(C)C)o5)ccn4)C(=O)[C@H]4CC[C@H](OC(=O)N5CC(O)C5)CC4)(CC2)CC3)cc1C` [Compound 26.12, 4-((4-(5-Isopropyl-1,3,4-oxadiazol-2-yl)pyridin-2-yl)((4-(4-methoxy-3-methylphenyl)bicyclo[2.2.2]octan-1-yl)methyl)carbamoyl)cyclohexyl trans-3-hydroxyazetidine-1-carboxylate] it was 6.00 to 7.30. Consider `COc1ccc(C23CCC(CN(c4cc(-c5nc(C(C)C)no5)ccn4)C(=O)[C@H]4CC[C@H](OC(=O)N5CC(O)C5)CC4)(CC2)CC3)cc1C` [Compound 26.13, 4-((4-(3-isopropyl-1,2,4-oxadiazol-5-yl)pyridin-2-yl)((4-(4-methoxy-3-methylphenyl)bicyclo[2.2.2]octan-1-yl)methyl)carbamoyl)cyclohexyl trans-3-hydroxyazetidine-1-carboxylate], for which the negative-log EC50 (pEC50) was at least 7.30.

Consider `COc1ccc(C23CCC(CN(c4cc(-c5noc(C(C)C)n5)ccn4)C(=O)[C@H]4CC[C@H](OC(=O)N5CC(O)C5)CC4)(CC2)CC3)cc1C` [Compound 26.14, 4-((4-(5-Isopropyl-1,2,4-oxadiazol-3-yl)pyridin-2-yl)((4-(4-methoxy-3-methylphenyl)bicyclo[2.2.2]octan-1-yl)methyl)carbamoyl)cyclohexyl trans-3-hydroxyazetidine-1-carboxylate], for which the pEC50 is at least 7.30. Under `CC(C)n1cc(-c2ccnc(N(CC34CCC(C5CCCCC5)(CC3)CC4)C(=O)[C@H]3CC[C@H](OC(=O)N4CC(O)C4)CC3)c2)cn1` [Compound 26.15, 4-(((4-Cyclohexylbicyclo[2.2.2]octan-1-yl)methyl)(4-(1-isopropyl-1H-pyrazol-4-yl)pyridin-2-yl)carbamoyl)cyclohexyl trans-3-hydroxyazetidine-1-carboxylate] stands at least 7.30; under `COc1ccc(C23CCC(CN(c4cc(-c5nnn(C(C)C)n5)ccn4)C(=O)[C@H]4CC[C@H](OC(=O)N5CC(O)C5)CC4)(CC2)CC3)cc1C` [Compound 26.16, 4-((4-(2-Isopropyl-2H-tetrazol-5-yl)pyridin-2-yl)((4-(4-methoxy-3-methylphenyl)bicyclo[2.2.2]octan-1-yl)methyl)carbamoyl)cyclohexyl trans-3-hydroxyazetidine-1-carboxylate], at least 7.30.

As a reminder, the pEC50 is the negative decadic logarithm of the EC50, by convention in mol/L.
